In ChEMBL document CHEMBL1136053, “Development of new hydrogen-bond descriptors and their application to comparative molecular field analyses” (J Med Chem, 2002):
Non-standard residues stand in square brackets, D forms with d. Residues, ends and D or L forms follow the SMILES beside them. ξ: configuration not given here. *: point of attachment. ξF = NC(Cc1ccccc1)C(=O)O; Cbz = O=C(OCc1ccccc1)*; NHOH = ON*

Molecular target: T1, Thermolysin (Bacillus thermoproteolyticus, UniProt P00800)
T1 sequence (P00800 whole entry): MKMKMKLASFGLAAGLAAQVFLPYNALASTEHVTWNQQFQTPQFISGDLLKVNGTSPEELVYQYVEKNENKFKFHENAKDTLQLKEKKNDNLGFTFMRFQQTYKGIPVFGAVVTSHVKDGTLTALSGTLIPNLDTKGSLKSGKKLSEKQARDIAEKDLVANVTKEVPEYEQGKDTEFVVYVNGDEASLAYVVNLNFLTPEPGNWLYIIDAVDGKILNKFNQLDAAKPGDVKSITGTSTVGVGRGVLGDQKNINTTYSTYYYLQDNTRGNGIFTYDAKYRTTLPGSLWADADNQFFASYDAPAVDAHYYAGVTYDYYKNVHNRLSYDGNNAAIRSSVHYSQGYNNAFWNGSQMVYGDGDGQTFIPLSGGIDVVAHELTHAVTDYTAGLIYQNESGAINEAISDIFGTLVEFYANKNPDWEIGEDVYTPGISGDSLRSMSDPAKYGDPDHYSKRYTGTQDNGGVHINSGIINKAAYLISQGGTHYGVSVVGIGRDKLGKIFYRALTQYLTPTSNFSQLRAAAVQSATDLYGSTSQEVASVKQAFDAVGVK
Experiment: pKi value expresses binding affinity against thermolysin pKi = -logKi (where Ki is in mol/L)

| Ki [µM] | pKi | Structure (SMILES) |
| --- | --- | --- |
| 2240 |  | CC(C)CC(NC(=O)CNC(=O)OCc1ccccc1)C(=O)N(C)O (configuration not stated) |
| 513 |  | O=C(NC(Cc1ccccc1)C(=O)O)OCc1ccccc1 (configuration not stated) |
| 3090 |  | CC(C)C[C@H](NC(=O)OCc1ccccc1)C(=O)NCC(N)=O (Cbz-Leu-Gly-NH2) |
| 0.302 |  | CC(C)CC(CP(=O)(O)CNC(=O)OCc1ccccc1)C(=O)NCC(=O)O (configuration not stated) |
| 0.00151 |  | CCCCCCP(=O)(O)NC(CC(C)C)C(=O)NC(Cc1c[nH]c2ccccc12)C(=O)NC (configuration not stated) |
| 0.479 |  | CC(C)C[C@H](C(=O)NO)C(=O)N[C@@H](C)C(=O)NCC(N)=O |
| 2.69 |  | CC(C)CC(NC(=O)NNC(=O)OCc1ccccc1)C(=O)NO (configuration not stated) |
| 47.9 |  | CC(C)C[C@@H](NC(=O)CNC(=O)OCc1ccccc1)C(=O)NO |
| 0.0661 |  | CC(C)CC(CP(=O)(O)CNC(=O)OCc1ccccc1)C(=O)NC(Cc1ccccc1)C(=O)O (configuration not stated) |
| 0.0759 |  | CC(C)CC(NP(=O)(O)CNC(=O)OCc1ccccc1)C(=O)NC(Cc1ccccc1)C(=O)O (configuration not stated) |
| 1620 |  | O=C(CCc1ccccc1)NC(Cc1ccccc1)C(=O)O (configuration not stated) |
| 6.76e-05 |  | CC(C)CC(NP(=O)(O)C(Cc1ccccc1)NC(=O)OCc1ccccc1)C(=O)NC(C)C(=O)O (configuration not stated) |
| 0.661 |  | C[C@H](NC(=O)[C@H](Cc1ccccc1)C(=O)NO)C(=O)NCC(=O)O |
| 0.0191 |  | CC(C)CC(NP(=O)(O)O)C(=O)NC(Cc1ccccc1)C(=O)O (configuration not stated) |
| 347 |  | NC(=O)CNC(=O)C(Cc1ccccc1)NC(=O)OCc1ccccc1 (configuration not stated) (Cbz-[ξF]-Gly-NH2) |
| 0.0339 |  | CC(C)C[C@H](NC(CCc1ccccc1)C(=O)O)C(=O)N[C@@H](Cc1c[nH]c2ccccc12)C(=O)O (some centres not stated) |
| 30.2 |  | CC(C)CC(OP(=O)(O)[C@@H](Cc1ccccc1)NC(=O)OCc1ccccc1)C(=O)NC(C)C(=O)O (some centres not stated) |
| 8.91 |  | CC(C)CC(NC(=O)C(CC(C)C)OP(=O)(O)CNC(=O)OCc1ccccc1)C(=O)O (configuration not stated) |
| 0.427 |  | CC(NC(=O)C(Cc1ccccc1)C(=O)NO)C(=O)NCC(=O)Nc1ccc([N+](=O)[O-])cc1 (configuration not stated) |
|  | 3.6 | CC(C)C[C@@H](NC(=O)CNC(=O)CNC(=O)OCc1ccccc1)C(=O)NO |
| 2.29 |  | O=C(O)CC(=O)NC(CS)Cc1ccccc1 (configuration not stated) |
| 1.41 |  | CC(C)CC(CP(=O)(O)CNC(=O)OCc1ccccc1)C(N)=O (configuration not stated) |

| Ki [µM] | pKi | Structure (SMILES) |
| --- | --- | --- |
| 0.676 |  | CC(C)CC(OP(=O)(O)C(CC(C)C)NC(=O)OCc1ccccc1)C(=O)NC(C)C(=O)O (configuration not stated) |
| 0.182 |  | CC(C)CC(CP(=O)(O)CNC(=O)OCc1ccccc1)C(=O)NC(CC(C)C)C(=O)O (configuration not stated) |
| 0.851 |  | CC(C)CC(NC(CCNC(=O)C(C)NC(=O)OCc1ccccc1)C(=O)O)C(=O)NC(Cc1ccccc1)C(=O)O (configuration not stated) |
| 229 |  | CC(C)CC(OP(=O)(O)CNC(=O)OCc1ccccc1)C(=O)NCC(=O)O (configuration not stated) |
| 0.479 |  | CC(C)CC(NP(=O)(O)[C@@H](Cc1ccccc1)NC(=O)OCc1ccccc1)C(=O)NC(C)C(=O)O (some centres not stated) |
| 41.7 |  | CC(C)CC(OP(=O)(O)[C@@H](CC(C)C)NC(=O)OCc1ccccc1)C(=O)NC(C)C(=O)O (some centres not stated) |
| 0.0186 |  | CC(C)CC(CP(=O)(O)CNC(=O)OCc1ccccc1)C(=O)NC(C)C(=O)O (configuration not stated) |
| 2.57 |  | CC(NC(=O)C(Cc1ccccc1)NP(=O)(O)O)C(=O)NCC(N)=O (configuration not stated) |
| 661 |  | CC(C)CC(OP(=O)(O)CNC(=O)OCc1ccccc1)C(N)=O (configuration not stated) |
| 0.407 |  | CC(C)CC(NC(CCNC(=O)CNC(=O)OCc1ccccc1)C(=O)O)C(=O)NC(Cc1ccccc1)C(=O)O (configuration not stated) |
| 0.661 |  | C[C@H](NC(=O)[C@H](Cc1ccccc1)C(=O)NO)C(=O)NCC(N)=O |
| 53.7 |  | CC(C)CC(OP(=O)(O)CNC(=O)OCc1ccccc1)C(=O)NC(Cc1ccccc1)C(=O)O (configuration not stated) |
| 417 |  | C[C@H](NC(=O)[C@H](Cc1ccccc1)C(=O)O)C(=O)NCC(N)=O |
| 1100 |  | C[C@H](C(=O)NO)C(=O)N[C@@H](C)C(=O)NCC(N)=O |
| 1.82 |  | CC(C)CC(OP(=O)(O)C(C)NC(=O)OCc1ccccc1)C(=O)NC(C)C(=O)O (configuration not stated) |
| 0.603 |  | CC(C)CC(NC(CCc1ccccc1)C(=O)O)C(=O)NC(Cc1ccccc1)C(=O)O (configuration not stated) |
| 38.9 |  | CC(C)C[C@H](NC(=O)CNC(=O)CNC(=O)OCc1ccccc1)C(=O)NO |
| 0.759 |  | CC(C)CC(NP(=O)(O)CNC(=O)OCc1ccccc1)C(N)=O (configuration not stated) |
| 0.0447 |  | CC(C)CC(OP(=O)(O)C(Cc1ccccc1)NC(=O)OCc1ccccc1)C(=O)NC(C)C(=O)O (configuration not stated) |
| 0.011 |  | CC(C)CC(NC(CCNC(=O)C(Cc1ccccc1)NC(=O)OCc1ccccc1)C(=O)O)C(=O)NC(Cc1c[nH]c2ccccc12)C(=O)O (configuration not stated) |
| 1.45 |  | CCCCCCP(=O)(O)OC(CC(C)C)C(=O)NC(Cc1c[nH]c2ccccc12)C(=O)NC (configuration not stated) |
| 3390 |  | CC(=O)N(O)[C@@H](CC(C)C)C(=O)N[C@@H](C)C(=O)NCC(N)=O |

| Ki [µM] | pKi | Structure (SMILES) |
| --- | --- | --- |
| 0.759 |  | C[C@H](NC(=O)[C@@H](CS)Cc1ccccc1)C(=O)NCC(N)=O |
| 219 |  | NC(=O)CNC(=O)C(Cc1ccc(O)cc1)NC(=O)OCc1ccccc1 (configuration not stated) |
| 2.82 |  | CC(C)CC(NC(C)C(=O)O)C(=O)NC(Cc1ccccc1)C(=O)O (configuration not stated) |
| 0.0166 |  | CC(C)CC(NP(=O)(O)CNC(=O)OCc1ccccc1)C(=O)NC(C)C(=O)O (configuration not stated) |
| 3090 |  | CC(=O)CC(=O)N[C@@H](Cc1ccccc1)C(=O)N[C@@H](C)C(=O)NCC(N)=O |
| 12.9 |  | CC(C)CC(OP(=O)(O)CNC(=O)OCc1ccccc1)C(=O)NC(C)C(=O)O (configuration not stated) |
| 1.7 |  | CC(C)CC(NC(CCc1cccc(CN)c1)C(=O)O)C(=O)NC(Cc1ccccc1)C(=O)O (configuration not stated) |
| 933 |  | O=C(CNC(=O)CNC(=O)OCc1ccccc1)NO (Cbz-Gly-Gly-{NHOH}) |
| 380 |  | CC(C)CC(NC(=O)NNC(=O)OCc1ccccc1)C(N)=O (configuration not stated) |
| 0.0525 |  | CCCCCCP(=O)(O)CC(CC(C)C)C(=O)NC(Cc1c[nH]c2ccccc12)C(=O)NC (configuration not stated) |
| 0.00912 |  | CC(C)CC(NC(=O)C(CC(C)C)NP(=O)(O)CNC(=O)OCc1ccccc1)C(=O)O (configuration not stated) |
| 3390 |  | CC(C)C[C@@H](C(=O)N[C@@H](C)C(=O)NCC(N)=O)N(O)C=O |
| 3800 |  | CCCCC(NC(CC(C)C)C(=O)NC(Cc1ccccc1)C(=O)O)C(=O)O (configuration not stated) |
| 24 |  | CC(C)CC(OP(=O)(O)[C@@H](C)NC(=O)OCc1ccccc1)C(=O)NC(C)C(=O)O (some centres not stated) |
| 4270 |  | C[C@H](NC(=O)[C@H](Cc1ccccc1)NS(=O)(=O)O)C(=O)NCC(N)=O |
| 20 |  | CCOC(=O)C(Cc1ccccc1)C(=O)NO (configuration not stated) |
| 2880 |  | C[C@H](NC(=O)[C@H](Cc1ccccc1)NC(=O)CO)C(=O)NCC(N)=O |
| 12.9 |  | CC(C)C[C@H](NC(=O)CNC(=O)OCc1ccccc1)C(=O)NO |
| 20900 |  | CC(C)C[C@H](NC(=O)CNC(=O)OCc1ccccc1)C(N)=O |
| 191 |  | CC(C)CC(N)C(=O)NO (configuration not stated) |
| 0.219 |  | CC(C)CC(NC(CCNC(=O)C(Cc1ccccc1)NC(=O)OCc1ccccc1)C(=O)O)C(=O)NC(Cc1ccccc1)C(=O)O (configuration not stated) |
| 0.269 |  | CC(C)CC(NP(=O)(O)CNC(=O)OCc1ccccc1)C(=O)NCC(=O)O (configuration not stated) |

| Structure (SMILES) | Ki [µM] | pKi |
| --- | --- | --- |
| CC(C)CC(NP(=O)(O)O)C(N)=O (configuration not stated) | 79.4 |  |
| CC[C@H](C)[C@H](NP(=O)(O)O)C(=O)N[C@@H](C)C(=O)O | 0.363 |  |
| C[C@H](NC(=O)[C@H](Cc1ccccc1)NP(=O)(O)S)C(=O)NCC(N)=O (some centres not stated) | 6.92 |  |
| O=C(O)C(Cc1ccccc1)NP(=O)(O)O (configuration not stated) | 72.4 |  |
| CC(C)CC(NP(=O)(O)OC1OC(C)C(O)C(O)C1O)C(=O)NC(Cc1c[nH]c2ccccc12)C(=O)O (configuration not stated) | 0.0282 |  |
| C[C@H](NC(=O)[C@H](C)NP(=O)(O)O)C(=O)O | 87.1 |  |
